The conditions of series [1]: humans, routine clinical experiments.
From the text: This tool is applicable no matter which technique or equipment is used to obtain the initial readings.
Series [2] is described as follows: clinical. The following applies: male, human, in vivo. From the text:
FIG. 3 ethanol concurrency test (simultaneously performed on the same human subject during a single experimental session) in a graphical representation
The following TABLE 1 of results describes the FIG. 3 curves:
The INTOXIMETER EC/IR 3000, which was used for the data presented in the TABLE 1, was made by Intoximeter, Inc. of St. Louis, Mo. The transcutaneous ethanol sensors (TES #33, #39) were made by Giner Inc. of Waltham, Mass.

Data on 1 compound can be found in patent US20030199098A1, “Advanced tool for the quantification uniformity within biological processes and conversions” (priority 2000, published 2003).

As to `CCO` [ethanol], the “Index-K efficiency corridor for alcohol catabolism” value in series [1] was “up to 3.4”. In series [2], the half-life came out at 1.48 h.

As usually defined, the half-life is how long it takes for the measured level to halve. Low readings indicate fast loss, high ones slow loss.
